# Measurements reported in US9241923B2, “Methods for promoting neuronal development and/or health” (Mead Johnson Nutrition Company, priority 2013, dated 2016).
# System: human adipose derived stem cells (hADSCs)
# Assay: neurogenesis / neuronal differentiation of hADSCs judged by neuronal morphology under phase contrast microscopy
# Type: cell-based
# Method: hADSCs were purchased from Invitrogen, also known as Life Technologies, of Carlsbad, Calif., U.S.A., and were cultured as near confluent monolayers in 100 mm culture plates within a maintenance media consisting of Complete MesenPro RS medium with growth supplement and L-glutamine obtained from Invitrogen®. The process of culturing, passage, and seeding the hADSCs is described below.
# The subculture of hADSCs was performed when cell culture reached confluence. To passage hADSCs, the following procedure is used: i) aspirate the Complete MesenPRO RS medium from the cells; ii) rinse the surface area of the cell layer with Dulbecco's phosphate buffered saline (DBPS) buffer by adding the DPBS to the side of the vessel opposite the attached cell layer and rocking the vessel back and forth several times; iii) remove the DPBS by aspiration and discard; iv) detach the cells by adding a sufficient volume of pre-warmed trypsin-EDTA solution without phenol red to cover the cell layer; v) incubate at 37° C. for approximately 7 minutes; vi) observe the cells under a microscope to determine if additional incubation is needed; vii) add 3 mL of the maintenance media to the plate, mix the cell suspension, add the suspension to a 15 mL centrifuge tube and centrifuge at 210 g for 5 minutes; viii) determine the total number of cells and percent viability using a hemacytometer; ix) add Complete MesenPRO RS medium to each vessel so that the final culture volume is 0.2 mL-0.5 mL per cm^2; x) seed the cells by adding the appropriate volume of cells to each vessel and incubate at 37° C., 5% CO2 and 90% humidity; and xi) three or four days after seeding, completely remove the medium and replace with an equal volume of Complete MesenPRO RS medium.
# Before seeding the passaged hADSCs on fresh culture plates, the surfaces of the culture ware are washed with sterile DPBS solution three times, followed by multiple rinses with sterile water. The first layer of coating is poly-L-ornithine. The coating is prepared by adding about 15 to about 20 µg/mL of poly-L-ornithine and incubating at 37° C. for one hour. The plate is washed three times with DPBS, 15 minutes per wash. The second layer of coating is bovine plasma fibronectin. The fibronectin is diluted in DPBS from stock to 1:1000 and 500 μL is added to each well. The plate is left at room temperature for one hour. One final wash with 500 μL per well of DPBS is performed and the plate is used immediately.
# The cells were then subjected to removal and reseeded at a density of 2×10^4 cells/ml (1×10^4 cells/well) onto 24-well culture plates that contained a poly-L-ornithine and bovine plasma fibronectin coating.
# Three days after seeding and priming; the culture medium was changed into neuronal differentiation medium. […]
Structure (SMILES),"neuronal morphology of hADSCs (DHA at 20 μM (positive control), vs negative control, FIG. 2B)","neurite outgrowth compared with DHA (ALA 5 μg/ml vs DHA 20 μM, FIG. 2C vs FIG. 2B)","neurogenesis (neuronal morphology displayed by the hADSCs) (ALA at 5 μg/ml, phase contrast microscopy at 3 hours and 24 hours, vs negative control (no treatment), FIG. 2C)","cell death (cellular toxicity) as compared to DHA (wells treated with ALA 5 μg/ml vs DHA 20 μM, hADSCs)"
"CC/C=C\C/C=C\C/C=C\C/C=C\C/C=C\C/C=C\CCC(=O)O [DHA, docosahexanoic acid, reference compound]",enhanced neuronal morphology of hADSCs,–,–,–
"O=C(O)CCCCC1CCSS1 (stereo not drawn) [ALA, Alpha-lipoic acid]",–,robust ability to promote neurogenesis in terms of neurite outgrowth,strong effect to enhance neurogenesis,less cell death overall
